PubChem BioAssay (NCI)
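Cells were grown in 96-well plates and exposed to each compound for 48 hours at five concentrations; endpoints were interpolated linearly between bracketing concentrations, or set to the highest concentration if not reached. Here, GI50 denotes the concentration required for 50% inhibition of growth. TGI is the concentration that stops growth completely.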

Columns and labels:
Assay in all cases: growth of human tumour cells (NCI), 48 h
RXF-631 renal = tested on: RXF-631 renal
DLD-1 colon = tested on: DLD-1 colon
M19-MEL melanoma = tested on: M19-MEL melanoma
KM20L2 colon = tested on: KM20L2 colon
DMS 273 small cell lung = tested on: DMS 273 small cell lung
LXFL 529 NSCLC = tested on: LXFL 529 NSCLC
DU-145 prostate = tested on: DU-145 prostate
PC-3 prostate = tested on: PC-3 prostate
MDA-N = tested on: MDA-N

`O=C1C2[C@@H](C(=O)N1c1ccc(Br)cc1)C13C(=CC2([N+](=O)[O-])[C@@H]2C(=O)N(c4ccc(Br)cc4)C(=O)[C@@H]21)c1ccccc1N3c1ccccc1` (some centres undefined) showed a TGI (RXF-631 renal) of over 100 µM, a TGI (DLD-1 colon) of over 100 µM and a TGI (M19-MEL melanoma) of over 100 µM.

Compound `N#Cc1c(-c2ccco2)cc(-c2ccc(N)cc2)[nH]c1=O` has a TGI (KM20L2 colon) of over 100 µM, a TGI (RXF-631 renal) of over 100 µM and a TGI (DMS 273 small cell lung) of over 100 µM. It also gave a TGI (DLD-1 colon) of over 100 µM and a TGI (LXFL 529 NSCLC) of over 100 µM.

Work on `CC(=O)OCCOCNC(=S)N/N=C/c1ccc([N+](=O)[O-])s1` yielded a TGI (KM20L2 colon) of over 100 µM, a TGI (DMS 273 small cell lung) of 85.2 µM and a TGI (DLD-1 colon) of over 100 µM. It also gave a TGI (M19-MEL melanoma) of 34.1 µM and a TGI (LXFL 529 NSCLC) of over 100 µM.

`COc1cc(/C=C2\CCC/C(=C\c3ccc(OCC4CO4)c(OC)c3)C2=O)ccc1OCC1CO1` (centres undefined) gave a GI50 (DU-145 prostate) of 3.06 µM, a TGI (DU-145 prostate) of 15.8 µM and a GI50 (PC-3 prostate) of 3.13 µM. It also gave a TGI (PC-3 prostate) of 45.7 µM.

`CCC[CH2][Sn]1([CH2]CCC)[O]CC(COc2c(Cl)cc(Cl)cc2Cl)[O]1` (centres undefined) showed a GI50 (KM20L2 colon) of 2.98 µM, a TGI (KM20L2 colon) of 10.7 µM and a GI50 (DMS 273 small cell lung) of 1.78 µM. For the same compound, the TGI (DMS 273 small cell lung) was 3.44 µM, the GI50 (DLD-1 colon) was 1.49 µM and the TGI (DLD-1 colon) was 2.95 µM. The GI50 (M19-MEL melanoma) was 0.941 µM, the TGI (M19-MEL melanoma) was 2.22 µM and the GI50 (LXFL 529 NSCLC) was 0.375 µM. For the same compound, the TGI (LXFL 529 NSCLC) was 1.58 µM.

With `Clc1nc(Cl)c2ncn(Cc3ccccc3Cn3cnc4c(Cl)nc(Cl)nc43)c2n1` the GI50 (DU-145 prostate) was 1.21 µM, the TGI (DU-145 prostate) was 2.65 µM and the GI50 (PC-3 prostate) was 2.04 µM. For the same compound, the TGI (PC-3 prostate) was 5.53 µM.

`CCOC(=O)C1=C(N)Oc2c(sc3c(C)cccc23)C1c1ccc(F)cc1` (centres undefined) gave a GI50 (DU-145 prostate) of 0.849 µM, a TGI (DU-145 prostate) of 13.5 µM and a GI50 (PC-3 prostate) of 0.496 µM. For the same compound, the TGI (PC-3 prostate) was 14.8 µM.

`COc1cc(OC)c2sc(-c3ccc(-n4cncc4-c4cc(OC)c(OC)c(OC)c4)cc3)nc2c1` gave a GI50 (DU-145 prostate) of over 100 µM, a TGI (DU-145 prostate) of over 100 µM and a GI50 (PC-3 prostate) of 2.54 µM. The TGI (PC-3 prostate) was over 100 µM.

With `COc1ccc(-c2cc(Nc3ccnc(N4CCOCC4)n3)on2)cc1` the GI50 (DU-145 prostate) was 0.302 µM, the TGI (DU-145 prostate) was 13.4 µM and the GI50 (PC-3 prostate) was 0.241 µM. It also gave a TGI (PC-3 prostate) of 24.2 µM.

`Cc1ccc(C)c(N2C(=O)C(=O)C(c3nc4ccccc4o3)/C(=N\NC(=O)c3ccccc3O)C2=O)c1` (centres undefined) gave a TGI (KM20L2 colon) of over 100 µM, a TGI (DMS 273 small cell lung) of 36.1 µM and a TGI (DLD-1 colon) of over 100 µM. It also gave a TGI (M19-MEL melanoma) of over 100 µM and a TGI (LXFL 529 NSCLC) of over 100 µM.

`COc1ccc(/C=C/c2cnccn2)cc1OC` gave a TGI (MDA-N) of over 10 µM, a TGI (DU-145 prostate) of over 10 µM and a TGI (PC-3 prostate) of over 10 µM.

With `Cc1ccc2[c](c1)[Sn]([c]1ccccc1)([c]1ccccc1)[c]1cc(C)ccc1N2C` the GI50 (KM20L2 colon) was over 100 µM, the TGI (KM20L2 colon) was over 100 µM and the GI50 (DMS 273 small cell lung) was 44.5 µM. The TGI (DMS 273 small cell lung) was over 100 µM, the GI50 (M19-MEL melanoma) was 37.7 µM and the TGI (M19-MEL melanoma) was over 100 µM. It also gave a GI50 (LXFL 529 NSCLC) of 26.6 µM and a TGI (LXFL 529 NSCLC) of over 100 µM.

Work on `COc1cc2c3c(n(CCCN(C)CCO)c(=O)c2cc1OC)-c1cc2c(cc1C3=O)OCO2` yielded a GI50 (DU-145 prostate) of 0.816 µM, a TGI (DU-145 prostate) of over 100 µM and a GI50 (PC-3 prostate) of 8.47 µM. The TGI (PC-3 prostate) was over 62.6 µM.

For `Cn1cc(S(=O)(=O)N2CCC3=Cc4c(cnn4-c4ccc(F)cc4)C[C@]3(C(=O)c3cc(C(F)(F)F)ccn3)C2)cn1`, the GI50 (DU-145 prostate) was over 100 µM, the TGI (DU-145 prostate) was over 100 µM and the GI50 (PC-3 prostate) was 31.4 µM. The TGI (PC-3 prostate) was over 100 µM.

Work on `NCCCOc1cc2ccccc2cc1C(=O)NCCCOc1cc2ccccc2cc1C(=O)Nc1ccc(Cl)cc1O` yielded a GI50 (DU-145 prostate) of 0.72 µM, a TGI (DU-145 prostate) of 2.17 µM and a GI50 (PC-3 prostate) of 0.306 µM. It also gave a TGI (PC-3 prostate) of 0.974 µM.

`COc1cc2c(cc1OC)C1Cc3cc(OC)c(OC)cc3N1CC2` (centres undefined) was tested, and the TGI (KM20L2 colon) was over 100 µM, the TGI (DLD-1 colon) was over 100 µM and the TGI (M19-MEL melanoma) was 80.5 µM. For the same compound, the TGI (LXFL 529 NSCLC) was 61.1 µM.

With `NCCCOc1cc(Cl)ccc1NC(=O)c1cc2ccccc2cc1OCCCN` the GI50 (DU-145 prostate) was 1.58 µM, the TGI (DU-145 prostate) was 2.95 µM and the GI50 (PC-3 prostate) was 1.41 µM. It also gave a TGI (PC-3 prostate) of 2.83 µM.

`Cn1cc(-c2csc(-c3cn(C)c4ccc(F)cc34)n2)c2cnccc21` gave a GI50 (DU-145 prostate) of 1.74 µM, a TGI (DU-145 prostate) of 3.16 µM and a GI50 (PC-3 prostate) of 1.71 µM. The TGI (PC-3 prostate) was 3.31 µM.

With `CCc1nc(Cl)c(Cl)c(Cl)n1` the TGI (PC-3 prostate) was over 100 µM.

For `COc1cc(/C=C/C(=O)C(C(=O)/C=C/c2ccc(OC(=O)CCNC34CC5CC(CC(C5)C3)C4)c(OC)c2)C(=O)CCNC23CC4CC(CC(C4)C2)C3)ccc1OC(=O)CCNC12CC3CC(CC(C3)C1)C2` (centres undefined), the GI50 (DU-145 prostate) was 2.21 µM, the TGI (DU-145 prostate) was 5.02 µM and the GI50 (PC-3 prostate) was 3.86 µM. The TGI (PC-3 prostate) was 25.1 µM.

For `CN1C(NNC(=O)c2cccnc2)=NS(=O)(=O)c2cc(Cl)ccc21`, the GI50 (DU-145 prostate) was over 100 µM, the TGI (DU-145 prostate) was over 100 µM and the GI50 (PC-3 prostate) was over 100 µM. The TGI (PC-3 prostate) was over 100 µM.

In the case of `COc1ccc(-c2nn(-c3cccc(Cl)c3)cc2-c2nc(N)[nH]c(=O)c2C#N)cc1`, the GI50 (DU-145 prostate) is reported as 17.9 µM, the TGI (DU-145 prostate) is reported as 70.1 µM and the GI50 (PC-3 prostate) is reported as 6.3 µM. It also gave a TGI (PC-3 prostate) of over 100 µM.

Compound `O=[N+]([O-])c1ccc(Sc2c3ccccc3nc3ccccc23)cn1` has a TGI (MDA-N) of 31.8 µM, a TGI (DU-145 prostate) of 26.5 µM and a TGI (PC-3 prostate) of 38.1 µM.

`Oc1ccc(/C=C/c2cc(O)cc3c2C(c2cc(O)cc(O)c2)C(c2ccc(O)c(O)c2)O3)cc1` (centres undefined) gave a TGI (MDA-N) of 56.9 µM, a TGI (DU-145 prostate) of over 100 µM and a TGI (PC-3 prostate) of over 100 µM.

Compound `CN(C)CCNc1nc2ccccc2c2c(=O)c3cc(F)ccc3sc12` has a GI50 (DU-145 prostate) of 1.77 µM, a TGI (DU-145 prostate) of 3.21 µM and a GI50 (PC-3 prostate) of 1.7 µM. The TGI (PC-3 prostate) was 3.37 µM.

Work on `Cc1ccc(N2C(=O)N(c3ccc(C)cc3)C3(SC=NN3C)C2=O)cc1` (centres undefined) yielded a TGI (KM20L2 colon) of over 100 µM, a TGI (DLD-1 colon) of over 100 µM and a TGI (M19-MEL melanoma) of over 100 µM. It also gave a TGI (LXFL 529 NSCLC) of over 100 µM.

In the case of `O=C1/C(=C/N2N=C(c3ccc4ccccc4c3)CC2c2ccccc2O)SC(=S)N1c1cccnc1` (centres undefined), the GI50 (DU-145 prostate) is reported as 1.5 µM, the TGI (DU-145 prostate) is reported as over 100 µM and the GI50 (PC-3 prostate) is reported as 0.518 µM. The TGI (PC-3 prostate) was over 100 µM.

In the case of `C1COCCSC2=C(SCCO1)SC(=C1SC3=C(SCCOCCOCCS3)S1)S2`, the TGI (KM20L2 colon) is reported as over 100 µM, the TGI (DMS 273 small cell lung) is reported as over 100 µM and the TGI (DLD-1 colon) is reported as over 100 µM. It also gave a TGI (LXFL 529 NSCLC) of over 100 µM.

In the case of `COc1ccc2c(c1)C(C)Cc1c(ncnc1-n1cnc3ccccc31)N2C` (centres undefined), the GI50 (DU-145 prostate) is reported as 0.439 µM, the TGI (DU-145 prostate) is reported as 10.3 µM and the GI50 (PC-3 prostate) is reported as 0.409 µM. It also gave a TGI (PC-3 prostate) of 17.5 µM.

`Oc1ccc(Oc2cnc3ccccc3n2)cc1` gave a GI50 (DU-145 prostate) of over 100 µM, a TGI (DU-145 prostate) of over 100 µM and a GI50 (PC-3 prostate) of 54.7 µM. It also gave a TGI (PC-3 prostate) of over 100 µM.

For `CCc1cccc(C)c1NC(=O)CC1C(=O)Nc2ccccc2S1=O` (centres undefined), the TGI (KM20L2 colon) was 90.4 µM, the TGI (DMS 273 small cell lung) was over 100 µM and the TGI (DLD-1 colon) was over 100 µM. The TGI (LXFL 529 NSCLC) was over 100 µM.

For `NC(=O)CNc1ccc([As]=[As]c2ccc(NCC(N)=O)cc2)cc1` (centres undefined), the GI50 (DU-145 prostate) was 6.48 µM, the TGI (DU-145 prostate) was 35 µM and the GI50 (PC-3 prostate) was 2.7 µM. It also gave a TGI (PC-3 prostate) of 22.7 µM.

In the case of `O=C(N/N=C/c1ccc(O)cc1O)c1cccnc1`, the GI50 (DU-145 prostate) is reported as 3.45 µM, the TGI (DU-145 prostate) is reported as over 100 µM and the GI50 (PC-3 prostate) is reported as 4.14 µM. It also gave a TGI (PC-3 prostate) of 46.9 µM.

`NCCCn1c2c(c3ccccc3c1=O)C(=O)c1ccccc1-2` gave a GI50 (DU-145 prostate) of 0.118 µM, a TGI (DU-145 prostate) of 3.71 µM and a GI50 (PC-3 prostate) of 0.451 µM. The TGI (PC-3 prostate) was 2.98 µM.

`CC(=O)[CH-]C(=O)c1ccccc1.CC(=O)[CH-]C(=O)c1ccccc1.O=S(=O)([O-])c1cc([O-])c2c([O-])cc(S(=O)(=O)[O-])cc2c1.[Na+].[Ti+4]` gave a GI50 (KM20L2 colon) of over 100 µM and a TGI (KM20L2 colon) of over 100 µM.
